ChEMBL document CHEMBL1136534, “Dihydroquinolines with amine-containing side chains as potent n-NOS inhibitors” (Bioorg Med Chem Lett, 2003)

Key:
[1] = target: T1, Nitric oxide synthase 3 (Homo sapiens, UniProt P29474); test: Inhibitory concentration against recombinant human Endothelial nitric oxide synthase
T1 sequence (P29474 whole entry): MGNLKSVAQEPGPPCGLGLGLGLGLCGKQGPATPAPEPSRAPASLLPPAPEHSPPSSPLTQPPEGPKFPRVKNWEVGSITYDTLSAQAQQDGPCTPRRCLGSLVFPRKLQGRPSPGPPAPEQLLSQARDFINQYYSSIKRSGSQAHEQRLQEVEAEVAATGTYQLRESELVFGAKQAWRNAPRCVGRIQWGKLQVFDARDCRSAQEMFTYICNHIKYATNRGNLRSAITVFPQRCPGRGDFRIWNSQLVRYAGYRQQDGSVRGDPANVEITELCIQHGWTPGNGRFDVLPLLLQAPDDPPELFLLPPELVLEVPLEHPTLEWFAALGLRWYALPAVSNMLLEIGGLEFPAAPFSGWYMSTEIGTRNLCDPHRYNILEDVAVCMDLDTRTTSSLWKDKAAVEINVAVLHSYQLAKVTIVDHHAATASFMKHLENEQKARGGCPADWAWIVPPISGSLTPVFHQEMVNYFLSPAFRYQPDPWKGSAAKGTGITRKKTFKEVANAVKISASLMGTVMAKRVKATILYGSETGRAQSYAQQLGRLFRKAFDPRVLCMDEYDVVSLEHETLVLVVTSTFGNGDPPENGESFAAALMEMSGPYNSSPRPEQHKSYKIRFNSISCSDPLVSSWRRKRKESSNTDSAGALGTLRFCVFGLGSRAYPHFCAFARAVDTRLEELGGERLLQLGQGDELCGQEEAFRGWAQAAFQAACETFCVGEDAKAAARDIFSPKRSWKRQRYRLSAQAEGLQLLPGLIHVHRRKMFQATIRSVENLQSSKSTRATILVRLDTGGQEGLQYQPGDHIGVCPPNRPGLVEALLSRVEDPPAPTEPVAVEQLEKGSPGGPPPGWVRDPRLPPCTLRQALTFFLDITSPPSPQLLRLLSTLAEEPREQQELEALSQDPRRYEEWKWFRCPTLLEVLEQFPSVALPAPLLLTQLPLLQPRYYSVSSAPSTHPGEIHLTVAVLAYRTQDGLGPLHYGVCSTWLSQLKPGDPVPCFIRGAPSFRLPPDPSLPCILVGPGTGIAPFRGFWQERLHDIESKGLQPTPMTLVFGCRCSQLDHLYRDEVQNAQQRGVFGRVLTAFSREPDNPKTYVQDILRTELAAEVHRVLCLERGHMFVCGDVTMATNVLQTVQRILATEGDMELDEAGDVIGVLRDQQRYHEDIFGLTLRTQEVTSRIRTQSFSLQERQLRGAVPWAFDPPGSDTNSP

[2] = target: Nitric oxide synthase 1 (Homo sapiens, UniProt P29475); test: Inhibitory concentration against recombinant human (neuronal nitric oxide synthase) n-NOS
[3] = target: Nitric oxide synthase, inducible (Homo sapiens, UniProt P35228); test: Inhibitory concentration against human Inducible nitric oxide synthase
Sequence of Nitric oxide synthase, inducible (P35228 whole entry): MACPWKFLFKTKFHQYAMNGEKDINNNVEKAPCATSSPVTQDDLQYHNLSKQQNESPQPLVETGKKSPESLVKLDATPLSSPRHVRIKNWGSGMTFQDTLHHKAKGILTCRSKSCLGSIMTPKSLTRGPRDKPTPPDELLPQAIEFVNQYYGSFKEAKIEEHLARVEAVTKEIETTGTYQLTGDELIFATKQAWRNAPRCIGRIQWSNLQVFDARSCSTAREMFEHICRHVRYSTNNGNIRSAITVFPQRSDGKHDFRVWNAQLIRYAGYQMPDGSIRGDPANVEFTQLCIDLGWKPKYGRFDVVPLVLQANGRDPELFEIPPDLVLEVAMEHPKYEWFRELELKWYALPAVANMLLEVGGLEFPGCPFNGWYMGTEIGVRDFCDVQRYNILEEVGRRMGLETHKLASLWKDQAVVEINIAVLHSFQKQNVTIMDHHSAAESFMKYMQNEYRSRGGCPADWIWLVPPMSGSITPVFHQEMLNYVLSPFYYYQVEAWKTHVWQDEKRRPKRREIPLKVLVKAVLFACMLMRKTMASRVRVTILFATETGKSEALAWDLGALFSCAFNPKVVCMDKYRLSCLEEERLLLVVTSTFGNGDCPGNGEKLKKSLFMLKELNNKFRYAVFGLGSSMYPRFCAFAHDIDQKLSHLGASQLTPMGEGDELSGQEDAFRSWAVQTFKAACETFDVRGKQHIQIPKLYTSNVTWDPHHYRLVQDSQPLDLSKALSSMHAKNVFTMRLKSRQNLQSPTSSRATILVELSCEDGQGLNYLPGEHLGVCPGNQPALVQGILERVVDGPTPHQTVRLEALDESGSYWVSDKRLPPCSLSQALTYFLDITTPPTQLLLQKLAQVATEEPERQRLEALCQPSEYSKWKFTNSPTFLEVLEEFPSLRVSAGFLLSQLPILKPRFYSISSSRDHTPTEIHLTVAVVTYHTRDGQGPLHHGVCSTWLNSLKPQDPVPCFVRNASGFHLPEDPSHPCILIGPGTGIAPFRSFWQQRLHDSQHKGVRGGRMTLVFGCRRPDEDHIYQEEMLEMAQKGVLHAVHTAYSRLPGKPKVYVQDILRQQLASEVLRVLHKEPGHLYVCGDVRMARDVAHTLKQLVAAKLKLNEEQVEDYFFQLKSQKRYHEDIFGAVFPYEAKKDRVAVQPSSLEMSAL

Sequence of Nitric oxide synthase 1 (P29475 whole entry): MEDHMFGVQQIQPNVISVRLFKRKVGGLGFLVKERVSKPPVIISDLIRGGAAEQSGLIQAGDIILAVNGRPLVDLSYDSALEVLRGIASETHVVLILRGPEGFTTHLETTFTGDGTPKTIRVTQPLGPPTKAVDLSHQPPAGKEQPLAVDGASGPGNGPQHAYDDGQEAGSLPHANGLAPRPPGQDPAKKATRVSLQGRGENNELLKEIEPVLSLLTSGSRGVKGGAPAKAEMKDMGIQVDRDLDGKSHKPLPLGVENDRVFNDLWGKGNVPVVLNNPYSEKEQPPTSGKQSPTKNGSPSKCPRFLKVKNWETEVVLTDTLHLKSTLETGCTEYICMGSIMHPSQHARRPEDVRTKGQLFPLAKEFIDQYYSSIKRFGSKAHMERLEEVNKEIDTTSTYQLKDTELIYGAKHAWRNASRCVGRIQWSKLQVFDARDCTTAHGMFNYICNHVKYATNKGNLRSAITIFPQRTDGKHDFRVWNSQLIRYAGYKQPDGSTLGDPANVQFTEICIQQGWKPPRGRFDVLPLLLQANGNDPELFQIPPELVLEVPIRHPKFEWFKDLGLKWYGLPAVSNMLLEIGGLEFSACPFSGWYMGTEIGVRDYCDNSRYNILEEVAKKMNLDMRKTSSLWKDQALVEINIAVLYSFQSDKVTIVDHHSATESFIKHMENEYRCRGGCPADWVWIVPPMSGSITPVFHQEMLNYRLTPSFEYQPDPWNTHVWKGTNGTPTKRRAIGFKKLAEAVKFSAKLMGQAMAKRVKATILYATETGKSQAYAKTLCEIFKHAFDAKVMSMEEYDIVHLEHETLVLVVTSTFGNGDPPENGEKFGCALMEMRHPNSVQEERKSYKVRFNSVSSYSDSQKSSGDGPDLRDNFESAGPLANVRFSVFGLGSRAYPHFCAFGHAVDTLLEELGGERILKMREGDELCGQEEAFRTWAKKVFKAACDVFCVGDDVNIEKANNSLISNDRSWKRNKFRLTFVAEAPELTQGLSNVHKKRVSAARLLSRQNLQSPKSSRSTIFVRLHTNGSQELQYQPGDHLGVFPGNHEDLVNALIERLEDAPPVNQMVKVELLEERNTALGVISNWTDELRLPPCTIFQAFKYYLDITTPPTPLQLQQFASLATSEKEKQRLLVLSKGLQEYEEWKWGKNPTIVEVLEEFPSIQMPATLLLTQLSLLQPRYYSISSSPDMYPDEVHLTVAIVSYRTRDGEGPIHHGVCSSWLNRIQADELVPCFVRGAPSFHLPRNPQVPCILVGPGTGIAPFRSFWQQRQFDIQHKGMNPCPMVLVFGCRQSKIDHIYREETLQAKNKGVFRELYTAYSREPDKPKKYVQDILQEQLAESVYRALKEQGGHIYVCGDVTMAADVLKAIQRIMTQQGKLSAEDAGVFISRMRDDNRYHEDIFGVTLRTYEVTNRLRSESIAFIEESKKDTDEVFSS

| Compound | IC50 [1] [nM] | IC50 [2] [nM] | IC50 [3] [nM] |
| --- | --- | --- | --- |
| N=C(Nc1ccc(CCNCc2cccc(Cl)c2)cc1)c1cccs1 | 3500 | 35 |  |
| CNCCOc1ccc2c(c1)N=C(N)[C@@H]1CCC[C@H]21 | 52000 | 170 | 3900 |
| NC1=Nc2cc(CCNCc3cccc(Cl)c3)ccc2[C@H]2CCC[C@@H]12 | 6700 | 48 | 530 |
| NC1=Nc2cc(CNCc3cccc(Cl)c3)ccc2[C@H]2CCC[C@@H]12 | 9600 | 140 | 950 |
| NC1=Nc2cc(CCCNCc3cccc(Cl)c3)ccc2[C@H]2CCC[C@@H]12 | 9400 | 42 | 580 |
| NC1=Nc2cc(CCNCc3cccc(Cl)c3)c(Cl)cc2[C@H]2CCC[C@@H]12 | 8700 | 170 | 1600 |
